Our source for the EC50 and T/C values is ChEMBL document CHEMBL1151394, “Cytotoxic agent from Senecio anonymus wood” (1982).

Values after ≈ are worked out from the molar mass of the structure shown.

For orientation: T/C means the result in the treated group divided by that in the control group, in per cent.

Test [1] deals with KB. Briefly: Cytotoxicity against human KB cells. Format: functional. The conditions noted are these: read-out: ED50 (the source's name).
In test [2] the test system is P388. The test can be described thus: In vivo cytotoxicity against mouse P388 cells. The test is classed as functional.

For the molecule `CCOC(=O)CC1(O)C=CC(=O)C=C1`, the EC50 in test [1] was 3.3 µg/mL (≈ 16.8 µM). As to `COC(=O)CC1(O)C=CC(=O)C=C1` [JACARANONE], the EC50 in test [1] came to 2.1 µg/mL (≈ 11.5 µM). Moreover, the T/C in test [2] turned out to be 165%.
